# Source: patent publication US11478466B2, “Small molecule promoting osteoblast differentiation” (Cornell University, priority 2019, dated 2022)
# Assays:
# [1] = system: p38-α; assay: Isoform-specific immunoprecipitation, p38-α activity in C2C12 cells; type: cell-based, mouse; details: C2C12, 10 μM DIPQUO
# Description: There are four separate p38 isoforms: α, β, γ, and δ. The respective roles of the α and β isoforms in bone differentiation have been dissected to the extent that p38-β is known to be involved specifically in skeletogenesis (Greenblatt et al., 2010), while p38-α has roles that are both wide-ranging and highly specific, for instance in dentition (Greenblatt et al., 2015). Accordingly, we used small interfering RNA-mediated knockdown to probe the specificity of DIPQUO to block the activity of one or the other isoform (FIG. 6E). […] To confirm the biological significance of this observation, the α and β isoforms were immunoprecipitated from C2C12 cells and analyzed for relative activity levels.
# [2] = system: zebrafish larvae; assay: Larval zebrafish notochord ossification model (alizarin red); type: in vivo, Danio rerio; details: 15 μM, 24-h pulse 7-8 dpf, stained at 9 dpf, vs DMSO or inert analogs
# Description: DIPQUO Promotes and Accelerates Bone Mineralization In Vivo To address whether the observed effects of DIPQUO on osteoblast differentiation and maturation could extend to an in vivo bone model, we utilized the zebrafish, Danio rerio. First, zebrafish were used as a model system to examine developmental ossification via direct vertebral specification through conversion of the notochord sheath (Inohaya et al., 2007; Laue et al., 2008). During zebrafish larval stages, the extent and pattern of ossification observable at discrete developmental time points are susceptible to perturbation by cytokines or genetic modulation. The contribution of extrinsic factors to notochord ossification and patterning can be measured by alizarin red staining in a manner analogous to its application in gauging osteoblast maturation in cultured cells.
# Animals studies were performed according to protocols approved by the WCMC IACUC. Wildtype (AB/TU hybrid) zebrafish were maintained at 28.5° C. Larval fish were treated from 7 dpf to 8 dpf in tank water with DMSO or with a 24-hour pulse of 15 μM DIPQUO or inert analog BT344 or BT345, and were fixed at 9 dpf in 4% paraformaldehyde overnight rocking at 4° C. Fixed larvae were washed in PBS-0.1% Tween-20 (PBST), followed by 50% ethanol/50% PBST. […] Images were acquired on a Zeiss LSM 800 confocal microscope and Sp7^+/col10a1^+ cells quantified using ImageJ.
# [3] = system: p38 MAPK; assay: Western blotting of p38 MAPK phosphorylation in C2C12 cells; type: cell-based, mouse
# Experimental: Whole cell extracts were collected from C2C12 or BRITER cells in complete lysis buffer (20 mM Tris, 150 mM NaCl, 50 mM NaF, 1% NP40 substitute, HALT protease inhibitor cocktail (ThermoScientific). Proteins were resolved by electrophoresis on pre-cast 10% NuPage Bis-Tris gels (Invitrogen) and transferred to PVDF membranes (Bio-Rad). Membranes were blocked in 5% BSA-TBS-0.5% Tween-20 for 15 minutes, then incubated at 4° overnight with primary antibodies. Antibodies used were: rabbit anti-phospho-p38 MAPK (cat. no. 9211), anti-p38 MAPK XP (8690), anti-phospho-SMAD1/5 (9516), anti-SMAD1 XP (6944), anti-phospho-SMAD2/3 (8828), anti-SMAD2/3 XP (8685), anti-phospho-JNK (4668), anti-SAPK/JNK (9252), anti-phospho-Akt XP (4060), pan anti-Akt (4691), anti-phospho ERK p42/p44 (4377), anti-ERK p42/p44 (9102), anti-phospho-MKK3/6 (12280), anti-MKK3 (8535), anti-phospho-TAK1 (4531), anti-TAK1 (5206), anti-HA (3274), and anti-FLAG (14793); all from Cell Signaling); and mouse anti-p38α (cat. no. 33-1300), anti-p38β (33-8700; both ThermoFisher) and anti-β-actin (Sigma A1978). Proteins were visualized with HRP-conjugated secondary antibodies (Bio-Rad) with WestPico (ThermoFisher) or Immobilon (Millipore) chemiluminescence reagents. Images were obtained and analyzed for relative densitometric relationships on a LI-COR C-DiGit scanner using Image Studio software.
structure (smiles),measurement,setting,value
"Cc1cc(C)c2[nH]c(=O)c(-c3[nH]cnc3-c3ccccc3)cc2c1 [RU-0226606, 6,8-dimethyl-3-(4-phenyl-1H-imidazol-5-yl)quinolin-2(1H)-one]",p38-α isoform activity after immunoprecipitation,[1],suppressed
same,mineralization of vertebral primordia (alizarin red),[2],accelerate and accentuate mineralization of incipient vertebral primordia
same,p38 MAPK signaling (phosphorylation),"[3]; C2C12, western blotting",selectively activated p38 MAPK signaling
same,concentration at which effects on p38 MAPK and JNK pathway activation overlap,"[3]; dose-response, western blotting, 6-8 hours of treatment",5 to 10 µM
